In patent US20030236212A1, “Functionalized long chain derivatives as acyl coenzyme-A mimics, compositions thereof, and methods of cholesterol management and related uses” (priority 2002, published 2003):

Tested on: obese female Zucker rats
Assay: Oral daily treatment of obese female Zucker rats for 14 days (body weight, serum lipids, glucose, insulin)
Assay type: in vivo, rat
Set-up: HDL-C / Glucose / Insulin / NEFA / BHA / TG / TC / Non HDL-C: unit not given here
Protocol: The dosing vehicle was administered to control animals in parallel experiments.
Body weight was determined daily prior to dosing. Animals were allowed free access to rodent chow and water throughout the study. Blood glucose was determined after a 6-hour fast in the afternoon without anesthesia from a tail vein. Serum was also prepared from a blood sample subsequently obtained from the orbital venous plexus (with O2/CO2 anesthesia) prior to and after one week treatment and used lipid and insulin determinations. At two weeks, blood glucose was again determined after a 6-hour fast without anesthesia from a tail vein. Soon thereafter, animals were sacrificed by CO2 inhalation in the afternoon and cardiac blood serum was collected and assessed for various lipids and insulin.

[1] = obese female Zucker rats, oral gavage daily 14 days, 100 mg/kg
[2] = obese female Zucker rats, oral, 14 days, 5 mg/kg/day (Table 1)

## CN(CCOc1ccc(CC2SC(=O)NC2=O)cc1)c1ccccn1 (stereo not drawn) [Compound 2, 5-{4-[2-(Methyl-pyridin-2-yl-amino)-ethoxy]-benzyl}-thiazolidine-2,4-dione, reference compound]
Fasted obese female Zucker rats, oral gavage daily 14 days, 100 mg/kg
  blood glucose levels: reduction
Fasted obese female Zucker rats, two weeks of treatment, 100 mg/kg
  serum insulin relative to pretreatment: reduced
[1]
  liver to body weight: slightly reduced
  weight gain, percent of initial weight after two weeks: greater than 15%
[2]
  BHA: 15.6 ± 0.6
  Glucose: −11.1 ± 4.5
  HDL-C: −4.6 ± 8.8
  Insulin: −53.3 ± 5.2
  NEFA: 0.034 ± 0.001
  Non HDL-C: −54.1 ± 5.6
  TC: −50.2 ± 1.8
  TG: 53 ± 14
